In the supplement of paper PMC10307832:

Experiments:
Experiment in all cases: relative viability (nuclei count vs DMSO), 5 days (fraction); higher = more cells survive
ALW-II-49-7 + Pemetrexed = compound: Cc1ccc(C(=O)Nc2cccc(C(F)(F)F)c2)cc1Nc1cncc(C(N)=O)c1 [ALW-II-49-7] + Nc1nc2[nH]cc(CCc3ccc(C(=O)N[C@@H](CCC(=O)O)C(=O)O)cc3)c2c(=O)[nH]1 [Pemetrexed] (partner 0.2 µM)
In short: (§1)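 The day after seeding in 1536-well plates, lung cancer cell lines were treated by pin tool with a single drug, or with a fixed anchor-drug dose together with five library-drug doses (not always all listed) in √10 steps. After 5 days, a combined fix-and-stain solution (final 0.05% Triton X-100, 1% formaldehyde, 1 ug/ml Hoechst) was added. Nuclei counted on 4× images gave relative viability as treated counts over vehicle counts, reported as the median of duplicate plates.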

ALW-II-49-7 + Lapatinib = compound: Cc1ccc(C(=O)Nc2cccc(C(F)(F)F)c2)cc1Nc1cncc(C(N)=O)c1 [ALW-II-49-7] + CS(=O)(=O)CCNCc1ccc(-c2ccc3ncnc(Nc4ccc(OCc5cccc(F)c5)c(Cl)c4)c3c2)o1 [Lapatinib] (partner 2 µM)
In short: as §1

XMD13-2 + Bortezomib = compound: C1CC1C(=O)NC2=NNC3=C2C=CC(=C3)C4=CC(=CC=C4)C(=O)NC5CC5 [XMD13-2] + CC(C)C[C@H](NC(=O)[C@H](Cc1ccccc1)NC(=O)c1cnccn1)B(O)O [Bortezomib] (partner 0.002 µM)
In short: as §1

Dasatinib + Bortezomib = compound: Cc1nc(Nc2ncc(C(=O)Nc3c(C)cccc3Cl)s2)cc(N2CCN(CCO)CC2)n1 [Dasatinib] + CC(C)C[C@H](NC(=O)[C@H](Cc1ccccc1)NC(=O)c1cnccn1)B(O)O [Bortezomib] (partner 0.002 µM)
In short: as §1

Cell Line	relative viability (ALW-II-49-7 + Pemetrexed; first compound 0.08 µM)	relative viability (ALW-II-49-7 + Pemetrexed; first compound 0.253 µM)	relative viability (ALW-II-49-7 + Pemetrexed; first compound 0.8 µM)	relative viability (ALW-II-49-7 + Pemetrexed; first compound 8 µM)	relative viability (ALW-II-49-7 + Lapatinib; first compound 0.08 µM)	relative viability (ALW-II-49-7 + Lapatinib; first compound 0.253 µM)	relative viability (ALW-II-49-7 + Lapatinib; first compound 0.8 µM)	relative viability (ALW-II-49-7 + Lapatinib; first compound 2.53 µM)	relative viability (ALW-II-49-7 + Lapatinib; first compound 8 µM)	relative viability (XMD13-2 + Bortezomib; first compound 0.05 µM)	relative viability (XMD13-2 + Bortezomib; first compound 0.1581 µM)	relative viability (XMD13-2 + Bortezomib; first compound 0.5 µM)	relative viability (XMD13-2 + Bortezomib; first compound 1.581 µM)	relative viability (XMD13-2 + Bortezomib; first compound 5 µM)	relative viability (Dasatinib + Bortezomib; first compound 0.005 µM)	relative viability (Dasatinib + Bortezomib; first compound 0.01581 µM)	relative viability (Dasatinib + Bortezomib; first compound 0.05 µM)	relative viability (Dasatinib + Bortezomib; first compound 0.1581 µM)	relative viability (Dasatinib + Bortezomib; first compound 0.5 µM)	relative viability (ALW-II-49-7 + Pemetrexed; first compound 2.53 µM)
LOU-NH91	0.298	0.361	0.35	0.338	0.738	0.809	0.742	0.589	0.699	0.501	0.451	0.538	0.444	0.556	0.477	0.477	0.479	0.485	0.487	
LU99A		0.19	0.163	0.184	1.03	0.919	0.739	1.12	0.999	1.2	1.06	1.12	0.992	0.718	1.11	0.973	1.03	0.812	0.573	0.172
LXF-289	0.822	0.869	0.958	0.959	0.864	0.818	0.922	1.01	0.967	1.06	1.04	1.07	0.976	1	1.03	1.12	0.93	0.518	0.204	1.05
NCI-H23	0.59	0.672	0.752	0.511	0.88	1.1	1.35	1.02	1.01	1.36	0.988	1.04	0.987	1.22	0.958	0.812	0.904	0.677	0.519	0.783
NCI-H322M	0.609	0.79	0.659	0.537	0.592	0.583	0.613	0.635	0.556	1.34	1.29	1.3	1.28	1.54	1.28	1.25	1.32	0.966	0.177	0.682
NCI-H460	0.0507	0.0651	0.0651	0.0738	0.834	0.701	1.03	0.936	0.528	1.38	1.09	1.15	1.18	1.34	0.97	0.79	0.701	0.736	0.49	0.0782
NCI-H520	0.655	0.673	0.724	0.558	0.666	0.544		0.627	0.846	0.978	0.802	0.66	0.329	0.365	0.588	0.22	0.358	0.146	0.178	0.666
NCI-H596	0.449	0.47	0.469	0.444	1.03	1.1	1.13	1.02	0.978	1.1	0.881	1.34	1.11	1.2	0.928	0.815	0.826	0.525	0.515	0.503
NCI-H647	0.186	0.175	0.16	0.115	0.779	0.772	1.18	0.806	0.855	1.59	1.16	1.29	1.11	0.549	0.547	0.593	0.447	0.257	0.189	0.123
NCI-H650	0.985	0.962	0.99	0.82	0.843	0.843	0.915	0.841	0.662	0.932	0.757	0.983	0.683	0.993	0.867	0.939	0.73	0.559	0.451	0.917
NCI-H661	0.974	0.968	0.944	0.959	0.47	0.474	0.383		0.483	0.86	0.805	0.846	0.626	0.587	0.62	0.415	0.557	0.319	0.24	0.929
NCI-H838	0.237	0.272	0.243	0.25	0.941	0.887	0.797	1.04	0.853	1.15	0.886	1.03	0.81	0.986	0.747	0.395	0.445	0.198	0.202	0.258
NCI-H1355	0.964	1.13	1.01	1.07	0.959	1.13	0.97	1.02	0.934	1.3	1.32	1.18	1.19	1.28	1.12	1.11	1.06	0.981	0.779	1.04
NCI-H1437	0.324	0.328	0.345	0.243	0.786	0.731		0.786	0.749	0.667	0.551	0.658	0.527	0.597	0.509	0.363	0.469	0.487	0.138	0.311
NCI-H1563	0.73	0.732	0.718	0.713	1.07	0.92	1.16	0.837	0.897	0.949	0.908	0.816	0.764	0.86	0.703	0.607	0.632	0.647	0.562	0.811
